Laboratory results as given in ChEMBL document CHEMBL5584269 (Bioorg Med Chem Lett, 2024).
The source made the active and inactive calls. The calls are words filed in the database; no cut-off is given here.

Tests used:
Trypanosoma cruzi [1] = test: Antitrypanosomal activity against epimastigote form of Trypanosoma cruzi CL Brener assessed as reduction in parasite growth incubated for 72 hrs by alamar blue dye based fluorescence analysis; format: functional, organism-based
[2] = Selectivity ratio of EC50 for antileishmanial activity against Leishmania donovani amastigotes infected in human THP-1 cells to EC50 for cytotoxicity against human THP-1 cells; format: functional
Leishmania donovani [3] = test: Antileishmanial activity against promastigote form of Leishmania donovani assessed as reduction in parasite growth incubated for 72 hrs by alamar blue dye based fluorescence analysis; format: functional, organism-based
HeLa = test: Cytotoxicity against human HeLa cells incubated for 72 hrs by alamar blue cell viability assay; format: functional, cell-based
THP-1 = test: Cytotoxicity against human THP-1 cells incubated for 72 hrs by alamar blue cell viability assay; format: functional, cell-based; conditions: THP-1, 72 h
Trypanosoma brucei [4] = test: Antitrypanosomal activity against bloodstream trypomastigote form of Trypanosoma brucei Lister 427 assessed as reduction in parasite growth incubated for 72 hrs by alamar blue dye based fluorescence analysis; format: functional, organism-based; conditions: Lister 427, 72 h
Leishmania major [5] = test: Antileishmanial activity against promastigote form of Leishmania major Freidlin assessed as reduction in parasite growth incubated for 72 hrs by alamar blue dye based fluorescence analysis; format: functional, organism-based
Leishmania donovani [6] = test: Antileishmanial activity against Leishmania donovani axenic amastigotes assessed as reduction in parasite growth incubated for 72 hrs by alamar blue dye based fluorescence analysis; format: functional, organism-based
Leishmania donovani [7] = test: Antileishmanial activity against Leishmania donovani amastigotes infected in human THP-1 cells assessed as reduction in parasite growth incubated for 72 hrs by alamar blue dye based fluorescence analysis; format: functional, organism-based; conditions: THP-1, 72 h
Leishmania major [8] = test: Induction of morphological change in promastigote form of Leishmania major Freidlin assessed as increase in intracellular vesicles at EC10 incubated for 48 hrs by DAPI staining based immunofluorescence analysis; format: functional, organism-based
Trypanosoma brucei [9] = test: Induction of morphological change in bloodstream trypomastigote form of Trypanosoma brucei Lister 427 assessed as reduction in cytokinesis at EC10 incubated for 48 hrs by DAPI staining based immunofluorescence analysis; format: functional, organism-based
Trypanosoma brucei [10] = test: Induction of morphological change in bloodstream trypomastigote form of Trypanosoma brucei Lister 427 assessed as appearance of swollen cells at EC10 incubated for 48 hrs by DAPI staining based immunofluorescence analysis; format: functional, organism-based
Trypanosoma cruzi [11] = test: Antitrypanosomal activity against epimastigote form of Trypanosoma cruzi CL Brener assessed as fold change in reduction of parasite growth incubated for 72 hrs by alamar blue dye based fluorescence analysis relative to miltefosine; format: functional
Leishmania major [12] = test: Antileishmanial activity against promastigote form of Leishmania major Freidlin assessed as morphological change at EC10 incubated for 48 hrs by DAPI staining based immunofluorescence analysis; format: functional, organism-based

| Structure (SMILES) | EC50 (Trypanosoma cruzi [1]) | EC50 (Trypanosoma brucei [4]) | Ratio EC50 [2] | EC50 (Leishmania donovani [3]) | EC50 (HeLa) | EC50 (THP-1) | EC50 (Leishmania major [5]) | EC50 (Leishmania donovani [6]) | EC50 (Leishmania donovani [7]) | Activity (Leishmania major [8]) | Activity (Trypanosoma brucei [9]) | Activity (Trypanosoma brucei [10]) | fold change (FC) (Trypanosoma cruzi [11]) | Activity (Leishmania major [12]) |
| --- | --- | --- | --- | --- | --- | --- | --- | --- | --- | --- | --- | --- | --- | --- |
| COC(=O)[C@@H]1CCCN1C(=O)CCSC | 19.5 µM | 12.4 µM | 50 | 2.02 µM | > 250 µM | > 250 µM | 2.46 µM | 1.86 µM | 4.67 µM |  |  |  |  |  |
| COC(=O)[C@H]1CCCN1C(=O)CCSC | 33.6 µM | 5.94 µM |  | 2.68 µM | > 250 µM |  | 3.1 µM |  |  |  |  |  |  |  |
| COC(=O)[C@@H]1CCCN1C(=O)CCS | 14.9 µM | 20.3 µM |  | 5.77 µM | > 250 µM |  | 7.02 µM |  |  |  |  |  |  |  |
| O=C(O)[C@H]1CCCN1C(=O)Cc1ccccc1 | > 200 µM | > 200 µM |  | 98.4 µM | > 250 µM |  | 104 µM |  |  |  |  |  |  |  |
| O=C(O)[C@H]1CCCN1C(=O)CCSCc1ccccc1 | 71.2 µM | 5.9 µM |  | 39.8 µM | > 250 µM |  | 39.6 µM |  |  |  |  |  |  |  |
| O=C(O)[C@@H]1CCCN1C(=O)CCSCc1ccccc1 | 19.9 µM | 14.8 µM |  | 2.58 µM | 120 µM |  | 3.16 µM |  |  |  |  |  |  |  |
| COC(=O)[C@@H]1CCCN1C(=O)C(C)(C)C | 66.4 µM | 58.3 µM |  | 17.1 µM | > 250 µM |  | 14.5 µM |  |  |  |  |  |  |  |
| COC(=O)[C@@H]1CCCN1C(=O)[C@H](C)CSC | 15.6 µM | 13.2 µM |  | 2.04 µM | > 250 µM |  | 5.3 µM |  |  |  |  |  |  |  |
| COC(=O)[C@@H]1CCCN1C(=O)[C@H](C)CSCc1ccccc1 | 30 µM | 32.9 µM |  | 3.98 µM | > 250 µM |  | 8.65 µM |  |  |  |  |  |  |  |
| N=C(N)c1ccc(OCCCCCOc2ccc(C(=N)N)cc2)cc1 [PENTAMIDINE] |  | 0.002 µM |  |  |  |  |  |  |  |  |  |  |  |  |
| CC1CS(=O)(=O)CCN1/N=C/c1ccc([N+](=O)[O-])o1 (stereo not drawn) [NIFURTIMOX] | 3.11 µM |  |  |  |  |  |  |  |  |  |  |  |  |  |
| CCCCCCCCCCCCCCCCOP(=O)([O-])OCC[N+](C)(C)C [MILTEFOSINE] |  |  |  | 5.82 µM |  | > 250 µM | 5.31 µM | 2.67 µM | 5.97 µM |  |  |  |  |  |
| COC(=O)[C@H]1CCCN1C(=O)CCSCc1ccccc1 | 60.2 µM | 4.11 µM |  | 33.9 µM | > 250 µM |  | 35.7 µM |  |  |  |  |  |  |  |
| COC(=O)[C@H]1CCCN1C(=O)Cc1ccccc1 | > 200 µM | > 200 µM |  | 95.2 µM | > 250 µM |  | 101 µM |  |  |  |  |  |  |  |
| COC(=O)[C@@H]1CCCN1C(=O)[C@H](C)CS | 22.7 µM | 15.2 µM |  | 2.81 µM | > 250 µM |  | 7.29 µM |  |  |  |  |  |  |  |
| C[C@H](CSCc1ccccc1)C(=O)N1CCC[C@H]1C(=O)O | 40.1 µM | 38.6 µM |  | 10.1 µM | > 250 µM |  | 16.8 µM |  |  |  |  |  |  |  |
| COC(=O)[C@@H]1CCCN1C(=O)CCSCc1ccccc1 | 5.1 µM | 6.9 µM | 50 | 1.18 µM | > 250 µM | > 250 µM | 1.24 µM | 0.91 µM | 4.98 µM |  | Active | Active | 3 | inactive |
| COC(=O)[C@H]1CCCN1C(=O)C(C)(C)C | 73.5 µM | 96.7 µM |  | 34.7 µM | > 250 µM |  | 39.9 µM |  |  |  |  |  |  |  |
| COC(=O)[C@@H]1CCCN1C(=O)Cc1ccccc1 | 44.1 µM | 38 µM |  | 11.7 µM | > 250 µM |  | 12.4 µM |  |  |  |  |  |  |  |

Now from value to molecule, other results behind:

| EC50 (Trypanosoma cruzi [1]) | EC50 (Trypanosoma brucei [4]) | Structure (SMILES) | Ratio EC50 [2] | EC50 (Leishmania donovani [3]) | EC50 (HeLa) | EC50 (THP-1) | EC50 (Leishmania major [5]) | EC50 (Leishmania donovani [6]) | EC50 (Leishmania donovani [7]) | Activity (Leishmania major [8]) | Activity (Trypanosoma brucei [9]) | Activity (Trypanosoma brucei [10]) | fold change (FC) (Trypanosoma cruzi [11]) | Activity (Leishmania major [12]) |
| --- | --- | --- | --- | --- | --- | --- | --- | --- | --- | --- | --- | --- | --- | --- |
| 70.9 µM | 61.5 µM | CC(C)(C)C(=O)N1CCC[C@H]1C(=O)O |  | 19.9 µM | > 250 µM |  | 20.4 µM |  |  |  |  |  |  |  |
| 37.1 µM | 1.44 µM | COC(=O)[C@H]1CCCN1C(=O)CC(C)C | 50 | 1.09 µM | > 250 µM | > 250 µM | 2.04 µM | 0.87 µM | 2.05 µM |  |  |  |  |  |
| 18.2 µM | 16.7 µM | O=C(O)[C@H]1CCCN1C(=O)CCS |  | 4.59 µM | > 250 µM |  | 6.06 µM |  |  |  |  |  |  |  |
|  | 22.9 µM | C[C@H](CS)C(=O)N1CCC[C@H]1C(=O)O [CAPTOPRIL] |  | 9.41 µM | 130 µM |  | 12.4 µM |  |  |  |  |  |  |  |
| 61.5 µM | 12.2 µM | CC(C)C(=O)N1CCC[C@H]1C(=O)O |  | 8.07 µM | > 250 µM |  | 5.52 µM |  |  |  |  |  |  |  |
| 35.2 µM | 28.2 µM | CSCCC(=O)N1CCC[C@H]1C(=O)O |  | 13.5 µM | > 250 µM |  | 16.8 µM |  |  |  |  |  |  |  |
| 14.2 µM | 1.95 µM | COC(=O)[C@@H]1CCCN1C(=O)CC(C)C | 50 | 1.63 µM | > 250 µM | > 250 µM | 1.97 µM | 0.97 µM | 2.23 µM | Active | Active | Active |  |  |
| 80.2 µM | 106 µM | CC(C)(C)C(=O)N1CCC[C@@H]1C(=O)O |  | 41.2 µM | > 250 µM |  | 48.1 µM |  |  |  |  |  |  |  |
| 39.1 µM | 9.7 µM | CSCCC(=O)N1CCC[C@@H]1C(=O)O |  | 4.27 µM | > 250 µM |  | 4.81 µM |  |  |  |  |  |  |  |
| 54.1 µM | 7.52 µM | COC(=O)[C@H]1CCCN1C(=O)C(C)C |  | 3.58 µM | > 250 µM |  | 3.3 µM |  |  |  |  |  |  |  |
| 17.4 µM | 2.46 µM | CC(C)CC(=O)N1CCC[C@H]1C(=O)O |  | 2.03 µM | > 250 µM |  | 2.26 µM |  |  |  |  |  |  |  |
| 59.7 µM | 9.9 µM | CC(C)C(=O)N1CCC[C@@H]1C(=O)O |  | 4.8 µM | > 250 µM |  | 4.11 µM |  |  |  |  |  |  |  |
| 46.5 µM | 40.8 µM | O=C(O)[C@@H]1CCCN1C(=O)Cc1ccccc1 |  | 13.8 µM | > 250 µM |  | 14.5 µM |  |  |  |  |  |  |  |
| 20.8 µM | 28.4 µM | O=C(O)[C@@H]1CCCN1C(=O)CCS |  | 7.15 µM | > 250 µM |  | 9.88 µM |  |  |  |  |  |  |  |
| 30.2 µM | 26.3 µM | CSC[C@@H](C)C(=O)N1CCC[C@H]1C(=O)O | 50 | 8.64 µM | > 250 µM | > 250 µM | 11.6 µM | 2.14 µM | 4.21 µM |  |  |  |  |  |
| 53.9 µM | 9.85 µM | COC(=O)[C@@H]1CCCN1C(=O)C(C)C |  | 7.02 µM | > 250 µM |  | 4.51 µM |  |  |  |  |  |  |  |
| 39.6 µM | 1.92 µM | CC(C)CC(=O)N1CCC[C@@H]1C(=O)O |  | 1.42 µM | > 250 µM |  | 2.77 µM |  |  |  |  |  |  |  |
